Assay [1] deals with T1, mcr-1 protein (Escherichia coli, UniProt A0A0R6L508).
T1 construct: gene mcr1; mcr-1 amplified from K. pneumoniae ZJ02, pET28a(+) NheI/XhoI, E. coli BL21(DE3), Ni-NTA; tag removal not mentioned
As to the kind of experiment: nano differential scanning fluorimetry. It is filed as binding. Conditions: apigenin 32 µg/mL, mcr-1 100 µg/mL, PBS, 20 min incubation, 25-95 °C at 5 °C/min; Tm lowered (destabilised). In general terms: DSF heats the sample and reads unfolding from a dye or from intrinsic fluorescence.

The target in assay [2] is T1, mcr-1 protein. As to the kind of experiment: microscale thermophoresis. It is filed as binding. Background: MST reads how a fluorescent partner responds to local heating, with and without ligand.

T1 sequence (A0A0R6L508 whole entry): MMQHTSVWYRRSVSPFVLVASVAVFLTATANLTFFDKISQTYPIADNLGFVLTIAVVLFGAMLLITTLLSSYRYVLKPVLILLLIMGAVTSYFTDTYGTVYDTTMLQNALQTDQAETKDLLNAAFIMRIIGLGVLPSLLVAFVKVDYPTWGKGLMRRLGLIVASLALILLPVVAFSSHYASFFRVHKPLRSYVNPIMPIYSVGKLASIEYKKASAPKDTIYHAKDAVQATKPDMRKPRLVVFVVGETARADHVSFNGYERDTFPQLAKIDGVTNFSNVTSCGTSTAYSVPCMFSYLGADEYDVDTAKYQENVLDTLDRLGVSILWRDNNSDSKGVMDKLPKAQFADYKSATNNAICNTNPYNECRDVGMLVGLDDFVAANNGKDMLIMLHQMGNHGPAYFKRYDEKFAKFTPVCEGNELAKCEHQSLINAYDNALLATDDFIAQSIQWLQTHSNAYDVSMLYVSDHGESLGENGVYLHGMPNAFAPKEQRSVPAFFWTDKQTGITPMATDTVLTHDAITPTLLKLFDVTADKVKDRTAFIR

Broadly, the Kd is the concentration at which binding is half-saturated. In the case of `O=c1cc(-c2ccc(O)cc2)oc2cc(O)cc(O)c12` [apigenin], the Tm decrease at mcr-1 protein [1] was determined as 5.7 °C. This compound registered an equilibrium dissociation constant (Kd) on mcr-1 protein [2] of 4.35 µM.

These data come from article PMC11448233, “High-throughput screening identification of apigenin that reverses the colistin resistance of mcr-1-positive pathogens” (Microbiology Spectrum, 2024).
